Experimental data from patent publication US10954287B2, “Ras binding peptides and methods of use” (Ra Pharmaceuticals, Inc., priority 2016, dated 2021).
*1 amine or outer side, *2 acyl side, *3 side chain or, on linkers, in order; H or OH if unused. Where a SMILES comes first, the peptide text is derived from it. Bridges are numbered along the chain shown (N, C = ends). [ ]: non-standard residue; d: D form. The star is where a group is joined. ξ: configuration not given here. 4‑(dimethylamino)benzoyl‑d4 = DMABZK2: N6-(4-(dimethylamino)benzoyl-2,3,5,6-d4)-L-lysine, [2H]c1c([2H])c(N(C)C)c([2H])c([2H])c1C(=O)*; DAPTZAC3 = (S)-3-(4-(3-acrylamidopropyl)-1H-1,2,3-triazol-1-yl)-2-aminopropanoic acid, C=CC(=O)NCCCc1cn(C[C@H](N[*:1])C(=O)[*:2])nn1; m‑xylylene = m-xylylene thioether bridge between Cys; Trp(7-aza) = N[C@@H](Cc1c[nH]c2ncccc12)C(=O)O; NMePhe(4-F) = CN[C@@H](Cc1ccc(F)cc1)C(=O)O; Alexa Fluor 594 = N-terminal label (ALF); mXylylene = c1cc(C[*:1])cc(C[*:2])c1; Phg = N[C@H](C(=O)O)c1ccccc1; Tle = CC(C)(C)[C@H](N)C(=O)O; ξPhg = NC(C(=O)O)c1ccccc1; NMeA = CN[C@@H](C)C(=O)O; Pra = C#CC[C@H](N)C(=O)O; Nva = CCC[C@H](N)C(=O)O; Ava = NCCCCC(=O)O; Sar = CNCC(=O)O

What follows are compounds tested on GMPPNP-loaded H-Ras or GTP-loaded K-Ras (assay: Fluorescence polarization competition assay with TAMRA-labeled probe R4007). Conditions: 120 nM Ras, 30 nM probe R4007, 60 minutes at room temperature; read-out: Probe displacement (nM IC50).
Assay type: binding, human
In short: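 120 nM GMPPNP-loaded H-Ras or GTP-loaded K-Ras was preincubated with 30 nM TAMRA-labeled R4007 probe for 20 min at room temperature in Tris pH 7.5 buffer with MgCl2, EDTA and Triton X-100. Serially diluted competitor was then added for 60 min. Polarization was read at 535/595 nm, with Ki from a one-site Ki fit and IC50 from probe displacement.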

Compound	IC50
CCC[C@H](NC(C)=O)C(=O)N[C@H]1CSCc2cccc(c2)CSC[C@@H](C(N)=O)NC(=O)[C@H](Cc2c[nH]cn2)NC(=O)[C@H](CCC)NC(=O)[C@H](Cc2c[nH]c3ncccc23)NC(=O)[C@H](CCC(=O)O)NC(=O)[C@H](Cc2c[nH]c3ncccc23)NC(=O)[C@H](Cc2c[nH]c3ncccc23)NC(=O)[C@H]([C@@H](C)O)NC(=O)[C@H](Cc2c[nH]cn2)NC(=O)[C@H](Cc2ccc(O)cc2)NC(=O)[C@H](C(C)(C)C)NC1=O (relative stereo) [Compound R4100, ACE-NVA-CYS*-TBG-TYR-HIS-THR-7AW-7AW-GLU-7AW-NVA-HIS-CYS*-NH2]	1.06 nM
CCC[C@H](NC(C)=O)C(=O)N[C@H]1CSCc2cccc(c2)CSC[C@@H](C(=O)O)NC(=O)CN(C)C(=O)[C@H](Cc2ccc(F)cc2)N(C)C(=O)[C@H](Cc2ccc(O)cc2)NC(=O)[C@H](Cc2c[nH]c3ncccc23)NC(=O)[C@H](c2ccccc2)NC(=O)[C@H](C)N(C)C(=O)[C@H](Cc2c[nH]cn2)NC(=O)[C@H](CCCCNC(CC(C)C)=C2C(=O)CC(C)(C)CC2=O)NC(=O)[C@H](C(C)(C)C)NC(=O)[C@H](Cc2ccc(O)cc2)NC1=O (relative stereo) [Compound R4135, ACE-NVA-CYS*-TYR-TBG-LYS-(DDE)-HIS-NMA-PHG-7AW-TYR-MFF-SAR-CYS*]	364 nM
C#CC[C@@H]1NC(=O)CN(C)C(=O)[C@H](Cc2ccc(F)cc2)N(C)C(=O)[C@H](Cc2ccc(O)cc2)NC(=O)[C@H](Cc2c[nH]c3ncccc23)NC(=O)[C@H](c2ccccc2)NC(=O)[C@H](C)N(C)C(=O)[C@H](Cc2c[nH]cn2)NC(=O)[C@H](CCCCN)NC(=O)[C@H](C(C)(C)C)NC(=O)[C@H](Cc2ccc(O)cc2)NC(=O)CCCCNC1=O [Compound R4128, APA*-TYR-TBG-LYS-HIS-NMA-PHG-7AW-TYR-MFF-SAR-PRG*] (cyclo([Ava]Y[Tle]KH[NMeA][Phg][Trp(7-aza)]Y[NMePhe(4-F)][Sar][Pra]))	215 nM
C#CC[C@@H]1NC(=O)CN(C)C(=O)[C@H](Cc2ccc(F)cc2)N(C)C(=O)[C@H](Cc2ccc(O)cc2)NC(=O)[C@H](Cc2c[nH]c3ncccc23)NC(=O)[C@H](c2ccccc2)NC(=O)[C@H](C)N(C)C(=O)[C@H](Cc2c[nH]cn2)NC(=O)[C@H](CCCCN)NC(=O)[C@H](C(C)(C)C)NC(=O)[C@H](Cc2ccc(O)cc2)NC1=O (relative stereo) [Compound R4145, TYR*-TBG-LYS-HIS-NMA-PHG-7AW-TYR-MFF-SAR-PRG*]	2800 nM
ACE-NVA-SER-TYR-TBG-ALA-DAPTZAC3-NMA-RPHG-7AW-TYR-MFF-SAR-SER-NH2 (Ac-[Nva]SY[Tle]A[DAPTZAC3][NMeA][ξPhg][Trp(7-aza)]Y[NMePhe(4-F)][Sar]S-NH2) [Compound R4148, linear]	6000 nM
CCC[C@H](NC(C)=O)C(=O)N[C@H]1CSCc2cccc(c2)CSC[C@@H](C(N)=O)NC(=O)CN(C)C(=O)[C@H](Cc2ccc(F)cc2)N(C)C(=O)[C@H](Cc2ccc(O)cc2)NC(=O)[C@H](Cc2c[nH]c3ncccc23)NC(=O)[C@H](c2ccccc2)NC(=O)[C@H](C)N(C)C(=O)[C@H](Cc2c[nH]cn2)NC(=O)[C@H](CCCCN)NC(=O)[C@H](C(C)(C)C)NC(=O)[C@H](Cc2ccc(O)cc2)N(C)C1=O (relative stereo) [Compound R4117, ACE-NVA-CYS*-NMY-TBG-LYS-HIS-NMA-PHG-7AW-TYR-MFF-SAR-CYS*-NH2]	48.3 nM
CCC[C@H](NC(C)=O)C(=O)N[C@H]1CSCc2cccc(c2)CSC[C@@H](C(=O)NCC(=O)NCC(=O)NCC(=O)N[C@@H](CS)C(=O)N[C@@H](C)C(=O)N[C@H](C(=O)N[C@@H](CC(C)C)C(N)=O)[C@@H](C)CC)NC(=O)CN(C)C(=O)[C@H](Cc2ccc(F)cc2)N(C)C(=O)[C@H](Cc2ccc(O)cc2)NC(=O)[C@H](Cc2c[nH]c3ncccc23)NC(=O)[C@H](c2ccccc2)NC(=O)[C@H](C)N(C)C(=O)[C@H](Cc2c[nH]cn2)NC(=O)[C@H](CCCCN)NC(=O)[C@H](C(C)(C)C)NC(=O)[C@H](Cc2ccc(O)cc2)NC1=O (relative stereo) [Compound R4120, ACE-NVA-CYS*-TYR-TBG-LYS-HIS-NMA-PHG-S7AW-TYR-MFF-AR-CYS*-GLY-GLY-GLY-CYS-ALA-ILE-LEU-NH2]	65.7 nM
CC(=O)N[C@@H](CO)C(=O)N[C@H]1CSCc2cccc(c2)CSC[C@@H](C(N)=O)NC(=O)CN(C)C(=O)[C@H](Cc2ccc(F)cc2)N(C)C(=O)[C@H](Cc2ccc(O)cc2)NC(=O)[C@H](Cc2c[nH]c3ncccc23)NC(=O)[C@H](c2ccccc2)NC(=O)[C@H](C)N(C)C(=O)[C@H](Cc2c[nH]cn2)NC(=O)[C@H](CCCCN)NC(=O)[C@H](C(C)(C)C)NC(=O)[C@H](Cc2ccc(O)cc2)NC1=O (relative stereo) [Compound R4104, ACE-SER-CYS*-TYR-TBG-LYS-HIS-NMA-PHG-7AW-TYR-MFF-SAR-CYS*-NH2]	3.29 nM
C[C@H]1C(=O)N[C@@H](c2ccccc2)C(=O)N[C@@H](Cc2c[nH]c3ncccc23)C(=O)N[C@@H](Cc2ccc(O)cc2)C(=O)N(C)[C@@H](Cc2ccc(F)cc2)C(=O)N(C)CC(=O)NCCOCCOCCC(=O)N[C@@H](Cc2ccc(O)cc2)C(=O)N[C@@H](C(C)(C)C)C(=O)N[C@@H](CCCCN)C(=O)N[C@@H](Cc2c[nH]cn2)C(=O)N1C (relative stereo) [Compound R4124, PEG2PA*-TYR-TBG-LYS-HIS-NMA-PHG-7AW-TYR-MFF-SAR*]	88.4 nM
CCC[C@H](NC(C)=O)C(=O)N[C@H]1CSCc2cccc(c2)CSC[C@@H](C(N)=O)NC(=O)CN(C)C(=O)[C@H](Cc2ccc(F)cc2)N(C)C(=O)[C@H](Cc2ccc(O)cc2)NC(=O)[C@H](Cc2c[nH]c3ccccc23)NC(=O)[C@H](c2ccccc2)NC(=O)[C@H](C)N(C)C(=O)[C@H](Cc2c[nH]cn2)NC(=O)[C@H](CCCCN)NC(=O)[C@H](C(C)(C)C)NC(=O)[C@H](Cc2ccc(O)cc2)NC1=O (relative stereo) [Compound R4115, ACE-NVA-CYS*-TYR-TBG-LYS-HIS-NMA-PHG-TRP-TYR-MFF-SAR-CYS*-NH2]	34.1 nM
ACE-NVA-CYS*-TYR-TBG-DMABZK2-HIS-NMA-PHG-7AW-TYR-MFF-SAR-CYS*-NH2 (Ac-[Nva]CY[Tle]K(4‑(dimethylamino)benzoyl‑d4)H[NMeA][Phg][Trp(7-aza)]Y[NMePhe(4-F)][Sar]C-NH2; linker 2-13 via m‑xylylene) [Compound R4150, cyclized by a m-xylylene thioether bridge]	7640 nM

Other lines, results leading:

IC50	Compound
37400 nM	ALF-NVA-CYS*-TYR-NVA-PHG-MFF-THR-PRO-7AW-CYS*-7AW-GLU-GLU-NH2 ({Alexa Fluor 594}-[Nva]CY[Nva][Phg][NMePhe(4-F)]TP[Trp(7-aza)]C[Trp(7-aza)]EE-NH2; linker 2-10 via mXylylene) [Compound R4154, cyclized by a m-xylylene thioether bridge]
281 nM	CCC[C@H](NC(C)=O)C(=O)N[C@H]1CSCc2cccc(c2)CSC[C@@H](C(N)=O)NC(=O)CN(C)C(=O)[C@H](Cc2ccc(F)cc2)N(C)C(=O)[C@H](Cc2ccc(O)cc2)NC(=O)[C@H](Cc2c[nH]c3ncccc23)NC(=O)[C@H](c2ccccc2)NC(=O)[C@H](CO)N(C)C(=O)[C@H](Cc2c[nH]cn2)NC(=O)[C@H](CCCCN)NC(=O)[C@H](C(C)(C)C)NC(=O)[C@H](Cc2ccc(O)cc2)NC1=O (relative stereo) [Compound R4132, ACE-NVA-CYS*-TYR-TBG-LYS-HIS-NMS-PHG-SA7AW-TYR-MFF-R-CYS*-NH2]
16.4 nM	CCC[C@H](NC(C)=O)C(=O)N[C@H]1CSCc2cccc(c2)CSC[C@@H](C(=O)N[C@H](CO)C(=O)N[C@@H](CCCCN)C(=O)NCC(=O)N[C@@H](CSSC(C)(C)C)C(=O)N[C@H](C(=O)N[C@H](C(=O)N[C@@H](CC(C)C)C(=O)O)C(C)C)C(C)C)NC(=O)CN(C)C(=O)[C@H](Cc2ccc(F)cc2)N(C)C(=O)[C@H](Cc2ccc(O)cc2)NC(=O)[C@H](Cc2c[nH]c3ncccc23)NC(=O)[C@H](c2ccccc2)NC(=O)[C@H](C)N(C)C(=O)[C@H](Cc2c[nH]cn2)NC(=O)[C@H](CCCCN)NC(=O)[C@H](C(C)(C)C)NC(=O)[C@H](Cc2ccc(O)cc2)NC1=O (relative stereo) [Compound R4110, ACE-NVA-CYS*-TYR-TBG-LYS-HIS-NMA-PHG-7AW-TYR-MFF-SAR-CYS*-DSER-LYS-GLY-TDSPA-VAL-VAL-LEU]
3390 nM	C=CC(=O)NCC[C@@H]1NC(=O)[C@H](C)NC(=O)[C@H](C(C)(C)C)NC(=O)[C@H](Cc2ccc(O)cc2)NC(=O)[C@@H](NC(=O)[C@H](CCC)NC(C)=O)CSCc2cccc(c2)CSC[C@@H](C(N)=O)NC(=O)CN(C)C(=O)[C@H](Cc2ccc(F)cc2)N(C)C(=O)[C@H](Cc2ccc(O)cc2)NC(=O)[C@H](Cc2c[nH]c3ncccc23)NC(=O)[C@H](c2ccccc2)NC(=O)[C@H](C)N(C)C1=O (relative stereo) [Compound R4146, ACE-NVA-CYS*-TYR-TBG-ALA-DABAC1-NMA-PHG-7AW-TYR-MFF-SAR-CYS*-NH2]
85 nM	C=CC(=O)NCCCC[C@@H]1NC(=O)[C@H](C)NC(=O)[C@H](C(C)(C)C)NC(=O)[C@H](Cc2ccc(O)cc2)NC(=O)[C@@H](NC(=O)[C@H](CCC)NC(C)=O)CSCc2cccc(c2)CSC[C@@H](C(N)=O)NC(=O)CN(C)C(=O)[C@H](Cc2ccc(F)cc2)N(C)C(=O)[C@H](Cc2ccc(O)cc2)NC(=O)[C@H](Cc2c[nH]c3ncccc23)NC(=O)[C@H](c2ccccc2)NC(=O)[C@H](C)N(C)C1=O (relative stereo) [Compound R4123, ACE-NVA-CYS*-TYR-TBG-ALA-KAC-NMA-PHG-7AW-TYR-MFF-SAR-CYS*-NH2]
64.4 nM	CCC[C@H](NC(C)=O)C(=O)N[C@H]1CSCc2cccc(c2)CSC[C@@H](C(=O)NCC(=O)N[C@@H](CS)C(=O)NCC(=O)N[C@H](C(=O)NCC(=O)N[C@H](C(=O)N[C@@H](CCSC)C(=O)O)[C@@H](C)CC)C(C)C)NC(=O)CN(C)C(=O)[C@H](Cc2ccc(F)cc2)N(C)C(=O)[C@H](Cc2ccc(O)cc2)NC(=O)[C@H](Cc2c[nH]c3ncccc23)NC(=O)[C@H](c2ccccc2)NC(=O)[C@H](C)N(C)C(=O)[C@H](Cc2c[nH]cn2)NC(=O)[C@H](CCCCN)NC(=O)[C@H](C(C)(C)C)NC(=O)[C@H](Cc2ccc(O)cc2)NC1=O (relative stereo) [Compound R4119, ACE-NVA-CYS*-TYR-TBG-LYS-HIS-NMA-PHG-7AW-TYR-MFF-SAR-CYS*-GLY-CYS-GLY-VAL-GLY-ILE-MET]
